Reference: patent US11576326B2, “Wheat with new alleles of Rht-B1” (Commonwealth Scientific and Industrial Research Organisation, priority 2012, dated 2023)

Columns and labels:
[1] = test system: barley endosperm half-grains; assay: α-Amylase production by endosperm half-grains incubated with GA3 (Ceralpha procedure); conditions: for α-Amylase at 42 h / α-Amylase at 72 h: GA3 (1 μM), 22° C.
Procedure: Endosperm half-grains were prepared and incubated with or without GA3 (1 μM) at 22° C. for 0, 42 or 72 h. To each sample, 1.5 mL of a solution of 10 mm CaCl2 was added, the half-grains were homogenised, and an aliquot of 1 mL was clarified by centrifugation (20,000 g for 5 min). The supernatant was analyzed for α-amylase activity using the Megazyme alpha-amylase (Ceralpha) procedure.
The production of α-amylase by endosperm half-grains of wild-type barley is dependent on the presence of an active GA. Therefore, monitoring α-amylase activity in the absence of an active GA provided a convenient measure of the extent of ‘basal’ GA signaling in the mutants. […] Among the overgrowth derivatives of Sln1d, the Sln1d.9 derivative was exceptional, accumulating very high levels of α-amylase at both 42 h and 72 h incubation, despite this line showing only a modest restoration of growth rate (Table 5).

[2] = test system: barley seedlings (first leaf); assay: Maximal daily leaf elongation rate (LERmax) of the first leaf of barley seedlings, with GA3; format: in vivo
Text: The methods have been previously described (Chandler and Robertson, 1999). Curves were fitted to data points using a 4-parameter Hill equation.
The maximal daily rate of elongation (LERmax) achieved by the first leaf under standard conditions was a robust measure of GA responsiveness (Chandler and Robertson, 1999) and was therefore determined for all of the barley overgrowth lines and their parents (Table 5). […] Three overgrowth alleles (sln1m, sln1n and sln1s) were compared in both their original dwarfing genetic background as well as after back-crossing to the tall WT background. […] In a wild-type background, the overgrowth alleles tended to enhance growth rates.

- increase in α-amylase activity over basal levels ([1]; 72 h incubation with GA3, control lines WT, grd2b): ~15 fold
- α-Amylase at 42 h ([1]; line Him, genotype WT): 9.81 ± 0.86 Ceralpha units/grain
- α-Amylase at 42 h ([1]; line M463, genotype grd2b): 7.20 ± 0.73 Ceralpha units/grain
- α-Amylase at 72 h ([1]; line Him, genotype WT): 23.1 ± 2.8 Ceralpha units/grain
- α-Amylase at 72 h ([1]; line M463, genotype grd2b): 18.9 ± 1.4 Ceralpha units/grain
SMILES: C=C1C[C@]23C[C@@]1(O)CC[C@H]2[C@@]12C=C[C@H](O)[C@@](C)(C(=O)O1)[C@H]2[C@@H]3C(=O)O [GA3]
- LERmax ([2]; line Him (Himalaya), genotype WT): 52.3 ± 0.1 mm · d^−1
- LERmax ([2]; line M463, genotype grd2b): 49.8 ± 0.8 mm · d^−1
- LERmax ([2]; line M640, genotype Sln1d): 12.1 ± 0.3 mm · d^−1
- LERmax ([2]; line M693, genotype gse1n): 35.3 ± 1.2 mm · d^−1
